Results on seven compounds are retold here after ChEMBL document CHEMBL5727817, “3′ end caps, 5′ end caps and combinations thereof for therapeutic RNA” (2020).

A short description of the test: thermodynamic (Steady State Affinity) binding analysis: A subset of compounds was further characterized to determine dissociation constants using thermodynamic (Steady State Affinity) binding analysis.

`Nc1nc([O-])c2c(n1)n([C@H]1O[C@@H](COP(=O)(O)O)[C@H](O)[C@@H]1O)c[n+]2Cc1ccccc1CS(=O)(=O)c1ccccc1`: the Kd (in general, the concentration at which binding is half-saturated) was determined as 0.03 µM. That is a double-digit nanomolar value. Compound `Nc1nc([O-])c2c(n1)n([C@H]1O[C@@H](COP(=O)(O)O)[C@H](O)[C@@H]1O)c[n+]2Cc1ccc(-c2ccccc2F)cc1` yielded a Kd of 0.41 µM. This Kd is about 14-fold higher than that of the compound before. For `Nc1nc([O-])c2c(n1)n([C@H]1O[C@@H](COP(=O)(O)O)[C@H](O)[C@@H]1O)c[n+]2Cc1cccc(OCc2ccccc2)c1`, the Kd was 0.58 µM. The compound `Nc1nc([O-])c2c(n1)n([C@H]1O[C@@H](COP(=O)(O)O)[C@H](O)[C@@H]1O)c[n+]2Cc1ccc(-c2ccccc2)c(Cl)c1` gave a Kd of 0.11 µM. `CO[C@H]1[C@@H](O)[C@H](COP(=O)(O)O)O[C@@H]1n1c[n+](CCOc2ccc(Cl)cc2)c2c([O-])nc(N)nc21` came in with a Kd of 0.16 µM. `Nc1nc([O-])c2c(n1)n([C@H]1O[C@@H](COP(=O)(O)O)[C@H](O)[C@@H]1O)c[n+]2Cc1cccc(Oc2ccccc2)c1` showed a Kd of 0.22 µM. Compound `Nc1nc([O-])c2c(n1)n([C@H]1O[C@@H](COP(=O)(O)O)[C@H](O)[C@@H]1O)c[n+]2Cc1ccc(-c2ccccc2)cc1` registered a dissociation constant Kd of 0.3 µM.
